Experimental data reported in the NIST ThermoML archive (doi:10.1016/j.jct.2012.07.015).

What was measured:
[1] = for viscosity / mass density: 101.33 kPa; for viscosity / mass density / surface tension liquid-gas: Liquid; for mass density: Vibrating tube method
[2] = Molar enthalpy of transition or fusion; conditions: Crystal; DSC
[3] = molar heat capacity at constant pressure; conditions: 101.33 kPa, Liquid, Small sample (50 mg) DSC

CCCCCC[n+]1ccc(C#N)cc1.O=S(=O)([N-]S(=O)(=O)C(F)(F)F)C(F)(F)F [1-hexyl-4-cyanopyridinium bis(trifluoromethylsulfonyl)imide]
Conditions | Glass transition temperature [°C] | mass density [kg/m3] | molar heat capacity at constant pressure [J/K/mol] | surface tension liquid-gas [mN/m] | viscosity [mPa·s]
[1], 293.15 K | – | 1411.6 | – | – | 1065.6
[1], 298.15 K | – | 1407.1 | – | 30.6 | 704.2
[1], 303.15 K | – | 1402.6 | – | – | 481.8
[1], 308.15 K | – | 1398.1 | – | 30.25 | 340.3
[1], 313.15 K | – | 1393.6 | – | – | 235.8
[1], 318.15 K | – | 1389.1 | – | 29.89 | 175.4
[1], 323.15 K | – | 1384.8 | – | – | 133.3
[1], 328.15 K | – | 1380.5 | – | 29.48 | 103.3
[1], 333.15 K | – | 1376.1 | – | – | 81.7
[1], 338.15 K | – | 1371.8 | – | 29.01 | 65.6
[1], 343.15 K | – | 1367.5 | – | – | 53.5
[1], 348.15 K | – | 1363.2 | – | – | 44.3
[1], 353.15 K | – | 1358.9 | – | – | 37.2
[1], 358.15 K | – | 1354.6 | – | – | 31.5
[1], 363.15 K | – | 1350.3 | – | – | 26.9
[1], DTA | -51.9 | – | – | – | –
[3], 298.15 K | – | – | 633 | – | –
[3], 323.15 K | – | – | 643 | – | –
[3], 353.15 K | – | – | 652 | – | –

Conditions | Triple point temperature [K]
[1], Crystal, DTA | 280.2

Conditions | Molar enthalpy of transition or fusion [kcal/mol]
[2] | 4.5

CCCC[n+]1cccc(C#N)c1.O=S(=O)([N-]S(=O)(=O)C(F)(F)F)C(F)(F)F [1-butyl-3-cyanopyridinium bis(trifluoromethylsulfonyl)imide]
Conditions | Glass transition temperature [°C] | mass density [kg/m3] | molar heat capacity at constant pressure [J/K/mol] | surface tension liquid-gas [mN/m] | viscosity [mPa·s]
[1], 293.15 K | – | 1483.2 | – | – | 1546.7
[1], 298.15 K | – | 1478.7 | – | 32 | 983.7
[1], 303.15 K | – | 1474.2 | – | – | 659.7
[1], 308.15 K | – | 1469.7 | – | 31.77 | 485.1
[1], 313.15 K | – | 1465.3 | – | – | 327.5
[1], 318.15 K | – | 1460.8 | – | 31.59 | 240.7
[1], 323.15 K | – | 1456.3 | – | – | 182.6
[1], 328.15 K | – | 1452 | – | 31.39 | 140.5
[1], 333.15 K | – | 1447.7 | – | – | 110.1
[1], 338.15 K | – | 1443.4 | – | 31.09 | 87.9
[1], 343.15 K | – | 1439.1 | – | – | 67.6
[1], 348.15 K | – | 1434.8 | – | – | 55.3
[1], 353.15 K | – | 1430.5 | – | – | 45.8
[1], 358.15 K | – | 1426.3 | – | – | 38.5
[1], 363.15 K | – | 1422 | – | – | 32.8
[1], DTA | -54.4 | – | – | – | –
[3], 298.15 K | – | – | 586 | – | –
[3], 323.15 K | – | – | 596 | – | –
[3], 353.15 K | – | – | 605 | – | –
